Test results reported in patent USRE38117E1, “Trioxane dimer compound having antiproliferative and antitumor activities” (Hauser, Inc., priority 1995, dated 2003).

Legend:
Type in all cases: cell-based
[1] = system: IGROVI; test: NCI 60 cell line screen (SRB), Ovarian Cancer
[2] = system: HL-60(TB); test: NCI 60 cell line screen (SRB), Leukemia; conditions: HL-60(TB) (Leukemia)
[3] = system: K-562; test: NCI 60 cell line screen (SRB), Leukemia; conditions: K-562 (Leukemia)
[4] = system: ACHN; test: NCI 60 cell line screen (SRB), Renal Cancer
[5] = system: MDA-N; test: NCI 60 cell line screen (SRB), Breast Cancer
[6] = system: NCI-H522; test: NCI 60 cell line screen (SRB), Non-Small Cell Lung Cancer
[7] = system: SW-620; test: NCI 60 cell line screen (SRB), Colon Cancer; conditions: SW-620 (Colon Cancer)
[8] = system: KM12; test: NCI 60 cell line screen (SRB), Colon Cancer
[9] = system: HCT-15; test: NCI 60 cell line screen (SRB), Colon Cancer; conditions: HCT-15 (Colon Cancer)
[10] = system: LOX IMVI; test: NCI 60 cell line screen (SRB), Melanoma
[11] = system: CCRF-CEM; test: NCI 60 cell line screen (SRB), Leukemia
[12] = system: MDA-MB-435; test: NCI 60 cell line screen (SRB), Breast Cancer; conditions: MDA-MB-435 (Breast Cancer)
[13] = system: OVCAR-4; test: NCI 60 cell line screen (SRB), Ovarian Cancer; conditions: OVCAR-4 (Ovarian Cancer)
[14] = system: A498; test: NCI 60 cell line screen (SRB), Renal Cancer
[15] = system: PC-3; test: NCI 60 cell line screen (SRB), Prostate Cancer; conditions: PC-3 (Prostate Cancer)
[16] = system: CAKI-1; test: NCI 60 cell line screen (SRB), Renal Cancer; conditions: CAKI-1 (Renal Cancer)
[17] = system: SF-539; test: NCI 60 cell line screen (SRB), CNS Cancer; conditions: SF-539 (CNS Cancer)
[18] = system: TK-10; test: NCI 60 cell line screen (SRB), Renal Cancer; conditions: TK-10 (Renal Cancer)
[19] = system: HOP-62; test: NCI 60 cell line screen (SRB), Non-Small Cell Lung Cancer; conditions: HOP-62 (Non-Small Cell Lung Cancer)
[20] = system: SN12C; test: NCI 60 cell line screen (SRB), Renal Cancer
[21] = system: HT29; test: NCI 60 cell line screen (SRB), Colon Cancer
[22] = system: RXF 393; test: NCI 60 cell line screen (SRB), Renal Cancer; conditions: RXF 393 (Renal Cancer)
[23] = system: UACC-257; test: NCI 60 cell line screen (SRB), Melanoma; conditions: UACC-257 (Melanoma)

For `CC(=O)O[C@H]1C(=O)[C@@]2(C)[C@H]([C@H](OC(=O)c3ccccc3)[C@]3(O)C[C@H](OC(=O)[C@H](O)[C@@H](NC(=O)c4ccccc4)c4ccccc4)C(C)=C1C3(C)C)[C@]1(OC(C)=O)CO[C@@H]1C[C@@H]2O` [Paclitaxel, paclitaxel, reference compound], the Log10GI50 [1] was −8.61 M, the Log10LC50 [1] was over −4.00 M and the Log10TGI [1] was −4.19 M. It also gave a Log10GI50 [2] of −11.57 M, a Log10LC50 [2] of over −4.53 M and a Log10TGI [2] of −4.53 M. For the same molecule, the Log10GI50 [3] was −10.83 M, the Log10LC50 [3] was over −4.00 M and the Log10TGI [3] was over −4.00 M. The Log10LC50 [4] was −4.45 M, the Log10TGI [4] was −4.90 M and the Log10GI50 [5] was under −13.00 M. The Log10GI50 [6] was over −13.00 M, the Log10LC50 [6] was over −4.00 M and the Log10TGI [6] was −11.20 M. The Log10GI50 [7] was −11.60 M, the Log10LC50 [7] was over −4.00 M and the Log10TGI [7] was over −4.00 M. For the same molecule, the Log10GI50 [8] was −11.43 M, the Log10LC50 [8] was over −4.00 M and the Log10TGI [8] was −4.36 M. The Log10GI50 [9] was −6.37 M, the Log10LC50 [9] was over −4.00 M and the Log10TGI [9] was over −4.00 M. The Log10GI50 [10] was −11.80 M, the Log10LC50 [10] was over −4.15 M and the Log10TGI [10] was −4.65 M. The Log10GI50 [11] was −11.61 M, the Log10LC50 [11] was over −4.00 M and the Log10TGI [11] was over −4.00 M. It also gave a Log10GI50 [12] of under −13.00 M, a Log10GI50 [13] of −5.00 M and a Log10LC50 [13] of over −4.00 M. For the same molecule, the Log10TGI [13] was −4.19 M, the Log10GI50 [14] was −7.14 M and the Log10LC50 [14] was −4.13 M. The Log10GI50 [15] was −10.85 M, the Log10LC50 [15] was over −4.00 M and the Log10TGI [15] was over −4.00 M. It also gave a Log10LC50 [16] of over −4.00 M, a Log10GI50 [17] of −11.09 M and a Log10LC50 [17] of over −4.00 M. The Log10GI50 [18] was −7.89 M, the Log10GI50 [19] was −9.67 M and the Log10LC50 [19] was −4.10 M. For the same molecule, the Log10TGI [19] was −4.80 M, the Log10GI50 [20] was −9.53 M and the Log10LC50 [20] was over −4.00 M. It also gave a Log10GI50 [21] of under −13.00 M, a Log10LC50 [21] of −4.39 M and a Log10GI50 [22] of −8.32 M. For the same molecule, the Log10LC50 [22] was over −4.00 M, the Log10TGI [22] was over −4.00 M and the Log10GI50 [23] was −10.30 M. For the same molecule, the Log10LC50 [23] was −4.03 M and the Log10TGI [23] was −4.52 M.
